According to the supplement of paper PMC10307832:

Assays:
Experiment in all cases: relative viability (nuclei count vs DMSO), 5 days (fraction); higher = more cells survive
XMD13-2 + Linsitinib = compound: C1CC1C(=O)NC2=NNC3=C2C=CC(=C3)C4=CC(=CC=C4)C(=O)NC5CC5 [XMD13-2] + C[C@]1(O)C[C@@H](c2nc(-c3ccc4ccc(-c5ccccc5)nc4c3)c3c(N)nccn32)C1 [Linsitinib] (partner 1 µM)
Summary of the method: (§1)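 Lung cancer cell lines were pin-tool dosed in 1536-well plates on the day after seeding, with either a lone drug or a fixed anchor-drug dose plus five library-drug doses (not always all listed) in √10 steps. Nuclei were counted on 4× images after 5 days. Relative viability is the ratio of treated-well to vehicle-well nuclei counts, with each value a median of duplicate plates.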

ALW-II-49-7 + Bortezomib = compound: Cc1ccc(C(=O)Nc2cccc(C(F)(F)F)c2)cc1Nc1cncc(C(N)=O)c1 [ALW-II-49-7] + CC(C)C[C@H](NC(=O)[C@H](Cc1ccccc1)NC(=O)c1cnccn1)B(O)O [Bortezomib] (partner 0.002 µM)
Summary of the method: as §1

Dasatinib + Trametinib = compound: Cc1nc(Nc2ncc(C(=O)Nc3c(C)cccc3Cl)s2)cc(N2CCN(CCO)CC2)n1 [Dasatinib] + CC(=O)Nc1cccc(-n2c(=O)n(C3CC3)c(=O)c3c(Nc4ccc(I)cc4F)n(C)c(=O)c(C)c32)c1 [Trametinib] (partner 0.02 µM)
Summary of the method: as §1

| Cell Line | relative viability (XMD13-2 + Linsitinib; first compound 0.05 µM) | relative viability (XMD13-2 + Linsitinib; first compound 0.1581 µM) | relative viability (XMD13-2 + Linsitinib; first compound 0.5 µM) | relative viability (XMD13-2 + Linsitinib; first compound 1.581 µM) | relative viability (XMD13-2 + Linsitinib; first compound 5 µM) | relative viability (ALW-II-49-7 + Bortezomib; first compound 0.08 µM) | relative viability (ALW-II-49-7 + Bortezomib; first compound 0.253 µM) | relative viability (ALW-II-49-7 + Bortezomib; first compound 0.8 µM) | relative viability (ALW-II-49-7 + Bortezomib; first compound 2.53 µM) | relative viability (ALW-II-49-7 + Bortezomib; first compound 8 µM) | relative viability (Dasatinib + Trametinib; first compound 0.005 µM) | relative viability (Dasatinib + Trametinib; first compound 0.01581 µM) | relative viability (Dasatinib + Trametinib; first compound 0.05 µM) | relative viability (Dasatinib + Trametinib; first compound 0.1581 µM) | relative viability (Dasatinib + Trametinib; first compound 0.5 µM) |
| --- | --- | --- | --- | --- | --- | --- | --- | --- | --- | --- | --- | --- | --- | --- | --- |
| PC-14 | 0.986 | 1.04 | 0.958 | 0.878 | 0.927 | 0.88 | 0.872 | 0.83 | 0.758 | 0.857 | 0.882 | 0.642 | 0.743 | 0.418 | 0.0498 |
| NCI-H2087 | 0.922 | 0.991 | 0.869 | 0.811 | 0.784 | 0.759 | 0.959 | 0.824 | 0.846 | 0.857 | 0.291 | 0.2 | 0.178 | 0.124 | 0.101 |
| HOP-62 | 1.03 | 0.971 | 1 | 1.09 | 0.913 | 0.852 | 1.06 | 1.02 | 0.369 | 0.965 | 0.344 | 0.333 | 0.32 | 0.211 | 0.162 |
| EKVX | 1.16 | 0.911 | 0.992 | 0.871 | 1.05 | 1.08 | 0.919 | 0.835 | 0.424 | 1.04 | 0.345 | 0.306 | 0.254 | 0.178 | 0.114 |
| EMC-BAC-2 | 0.912 | 0.82 | 0.841 | 0.848 | 0.689 | 1.04 | 0.979 | 1.1 | 1.06 | 0.844 | 0.965 | 0.93 | 0.923 | 0.857 | 0.716 |
| HARA | 0.934 | 0.931 | 0.944 | 0.972 | 1.07 | 1.06 | 1.17 | 0.994 | 1.22 | 1.26 | 0.714 | 0.31 | 0.518 | 0.189 | 0.212 |
| LU99A | 0.609 | 0.552 | 0.591 | 0.445 | 0.463 | 1.29 | 1.17 | 1.05 | 1.07 | 1.27 | 0.539 | 0.576 | 0.458 | 0.372 | 0.328 |
| NCI-H441 | 0.771 | 0.415 | 0.558 | 0.64 | 0.398 | 0.333 | 0.559 | 0.431 | 0.384 | 0.208 | 0.409 | 0.418 | 0.328 | 0.208 | 0.181 |
| NCI-H23 | 0.558 | 0.579 | 0.624 | 0.537 | 0.58 | 1.12 | 0.807 | 1.03 | 1.12 | 1.02 | 0.376 | 0.278 | 0.231 | 0.188 | 0.168 |
| NCI-H647 | 1.33 | 1.22 | 1.15 | 1.17 | 1.09 | 0.858 | 1.13 | 0.799 | 0.725 | 0.801 | 0.372 | 0.224 | 0.244 | 0.145 | 0.116 |
| 201T | 1.06 | 1.08 | 1.01 | 0.957 | 0.908 | 1.1 | 1.13 | 1.09 | 1.08 | 1.06 | 0.695 | 0.64 | 0.708 | 0.575 | 0.44 |
| NCI-H1734 | 0.893 | 0.996 | 0.938 | 0.784 | 0.743 | 1.07 | 1.14 | 0.846 | 0.823 | 0.738 | 0.665 | 0.59 | 0.612 | 0.599 | 0.512 |
| NCI-H596 | 1.12 | 1.13 | 1.01 | 1.05 | 1.22 | 0.672 | 0.99 | 1.18 | 1 | 0.953 | 0.7 | 0.578 | 0.56 | 0.431 | 0.323 |
